# Data reported in US20240025924A1, “HETEROCYCLE SUBSTITUTED KETONE DERIVATIVE, AND COMPOSITION AND MEDICINAL USE THEREOF” (SHANGHAI HAIYAN PHARMACEUTICAL TECHNOLOGY CO., LTD., priority 2021, published 2024).
# What was measured:
# SHP-2 enzyme = target: T1, SHP-2 enzyme (Homo sapiens, UniProt Q06124); assay: Phosphatase activity assay (Homogeneous Full Length SHP-2 Assay Kit, DiFMUP substrate); format: biochemical; settings: full length SHP-2 activated with 0.5 μM SHP-2 activating Peptide; 1 hour co-incubation; DiFMUP 50 μM, 30 min
# T1 construct: Homogeneous Full Length SHP-2 Assay Kit (BPS Bioscience #79330); purchased BPS Bioscience 79330
# T1 sequence (Q06124 1-593): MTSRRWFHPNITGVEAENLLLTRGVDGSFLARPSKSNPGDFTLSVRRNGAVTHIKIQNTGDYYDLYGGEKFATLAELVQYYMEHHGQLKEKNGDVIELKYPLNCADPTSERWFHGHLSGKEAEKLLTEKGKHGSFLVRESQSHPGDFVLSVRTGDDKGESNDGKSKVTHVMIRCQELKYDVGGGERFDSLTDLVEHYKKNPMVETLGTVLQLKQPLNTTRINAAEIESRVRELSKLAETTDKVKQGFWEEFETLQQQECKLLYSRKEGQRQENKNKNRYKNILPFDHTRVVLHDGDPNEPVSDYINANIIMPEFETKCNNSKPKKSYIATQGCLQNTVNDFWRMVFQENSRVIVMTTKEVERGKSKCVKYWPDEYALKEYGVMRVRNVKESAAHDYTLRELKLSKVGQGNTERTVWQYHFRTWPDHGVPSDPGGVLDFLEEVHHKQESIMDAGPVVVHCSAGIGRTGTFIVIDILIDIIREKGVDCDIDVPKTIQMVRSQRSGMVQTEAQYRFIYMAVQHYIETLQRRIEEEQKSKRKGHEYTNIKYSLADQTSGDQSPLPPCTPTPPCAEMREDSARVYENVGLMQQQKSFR
# Protocol: IC50 values were assayed using Homogeneous Full Length SHP-2 Assay Kit (BPS Bioscience #79330), which uses 6,8-difluoro-4-methylumbelliferone phosphate (DiFMUP) as the reaction substrate. SHP2 enzyme solution (diluted to 0.04 ng/μL with 1*buffer) was mixed with 0.5 μM SHP-2 activating Peptide in a 1*buffer solution containing 2.5 mM DTT to activate PTP. At the same time, DMSO (0.1% (V/V)) or the compounds (concentration: 0.5 nM to 1 μM) were added, mixed and co-incubated for 1 hour. DiFMUP (50 μM, total reaction system volume of 20 μL) was added, and the reaction was started. After 30 min of incubation, the fluorescence intensity of the reaction system (excitation wavelength: 350 nm, emission wavelength: 460 nm) was measured by Tecan Infinite M1000.
# MV-4-11 cell = assay: Cell proliferation assay (Cell Titer-Glo); format: cell-based; settings: Homo sapiens, MV4-11, 96 h, inhibition of MV-4-11 cell proliferation; Cell Titer-Glo on day 4
# Protocol: MV 411 cells (20000 cells/well) were inoculated and cultured in 96 (Corning #3916) well plates, and the medium was 80 μL/well (IMDM with 10% fetal bovine serum (FBS), Gibco #10099-141C). After 24 hours of incubation, 20 μL of the compounds of the present invention configured to different concentrations (DMSO final concentration of 0.1% (V/V)) were added. On day 4, 60 μL of Cell Titer-Glo (Promega #G7558) was added to each well and mixed at 80 rpm, 25° C., 15 min, and the fluorescence values were detected by Victor X5 (PE).
IC50 (SHP-2 enzyme) [nM],IC50 (MV-4-11 cell) [nM],SMILES
11,57,Cc1ccc2c(c1)C(N)C1(CCN(c3cnc(C(=O)N4Cc5sc(N)nc5C(C)(C)C4)c(N)n3)CC1)C2 (stereo not drawn) [Compound 102]
13,25,Cc1nc(C(=O)N2Cc3sc(N)nc3C(C)C2)c(N)nc1N1CCC2(CC1)Cc1ccccc1C2N (stereo not drawn) [Compound 105]
4,17,Nc1nc2c(s1)CN(C(=O)c1nc(Cl)c(N3CCC4(CC3)Cc3ccccc3C4N)nc1N)CC2 (stereo not drawn) [Compound 83]
4,24,Nc1nc(N2CCC3(CC2)Cc2ccc(Cl)cc2C3N)cnc1C(=O)N1CCCn2nccc21 (stereo not drawn) [Compound 2]
7,71,CC1(C)CN(C(=O)c2ncc(N3CCC4(CC3)Cc3ccccc3C4N)nc2N)Cc2sc(N)nc21 (stereo not drawn) [Compound 61]
5,9,Nc1nc2c(s1)CN(C(=O)c1ncc(N3CCC4(CC3)Cc3ccccc3C4N)nc1N)CC2 (stereo not drawn) [Compound 75]
5,235,CC1CN(C(=O)c2ncc(N3CCC4(CC3)Cc3cc(F)ccc3C4N)nc2N)c2ccc(N)nc21 (stereo not drawn) [Compound 88]
37,860,"N[C@@H]1c2ccccc2CC12CCN(c1cnc(C(=O)N3CCCc4ncccc43)cn1)CC2 [Compound D1, reference compound]"
5,70,Cc1ccc2c(c1)C(N)C1(CCN(c3cnc(C(=O)N4CCc5nc(N)ccc54)c(N)n3)CC1)C2 (stereo not drawn) [Compound 64]
8,114,COc1ccc2c(c1)C(N)C1(CCN(c3cnc(C(=O)N4Cc5sc(N)nc5C(C)(C)C4)c(N)n3)CC1)C2 (stereo not drawn) [Compound 93]
6,5,Nc1nc2c(s1)CN(C(=O)c1cnc(N3CCC4(CC3)Cc3ccc(F)cc3C4N)c(CO)n1)CC2(F)F (stereo not drawn) [Compound 118]
9,–,CC1(C)Cc2nc(N)sc2CN1C(=O)c1ncc(N2CCC3(CC2)Cc2ccccc2C3N)nc1N (stereo not drawn) [Compound 121]
22,–,Nc1nc(N2CCC3(CC2)Cc2ccccc2C3N)cnc1C(=O)N1CCCc2c(Cl)cccc21 (stereo not drawn) [Compound 14]
–,19,COc1ccc2c(c1)C(N)C1(CCN(c3cnc(C(=O)N4Cc5sc(N)nc5C(F)(F)C4)c(N)n3)CC1)C2 (stereo not drawn) [Compound 73]
28,–,Cc1cc2n(n1)CCCN2C(=O)c1ncc(N2CCC3(CC2)Cc2ccccc2C3N)nc1N (stereo not drawn) [Compound 32]
15,–,Cc1nc(N2CCC3(CC2)Cc2ccccc2C3N)c(CO)nc1C(=O)N1CCc2nc(N)ccc21 (stereo not drawn) [Compound 111]
22,–,NC(=O)c1nc(C(=O)N2CCCn3nccc32)cnc1N1CCC2(CC1)Cc1ccccc1C2N (stereo not drawn) [Compound 23]
17,–,Nc1nc(N2CCC3(CC2)Cc2ccccc2C3N)cnc1C(=O)N1Cc2cccnc2C1 (stereo not drawn) [Compound 20]
18,–,CC1(C)CN(C(=O)c2ncc(N3CCC4(CC3)Cc3ccccc3C4N)nc2N)c2cccnc21 (stereo not drawn) [Compound 36]
25,–,Cc1nc(N2CCC3(CC2)Cc2ccccc2C3N)c(C(N)=O)nc1C(=O)N1CCCn2nccc21 (stereo not drawn) [Compound 44]
60,–,Cc1nc(N2CCC3(CC2)Cc2ccccc2C3N)c(CO)nc1C(=O)N1CCCn2nccc21 (stereo not drawn) [Compound 43]
4,–,Nc1nc(N2CCC3(CC2)Cc2cc(Cl)ccc2C3N)cnc1C(=O)N1CCCn2nccc21 (stereo not drawn) [Compound 48]

# The next lines start with the compound.
SMILES,IC50 (SHP-2 enzyme) [nM],IC50 (MV-4-11 cell) [nM]
Nc1nc(N2CCC3(CC2)Cc2sc(Cl)nc2C3N)cnc1C(=O)N1CCCn2nccc21 (stereo not drawn) [Compound 25],15,–
Nc1ccc2c(n1)CCN2C(=O)c1ncc(N2CCC3(CC2)Cc2ccc(F)cc2C3N)nc1N (stereo not drawn) [Compound 95],3,176
CC(C)(O)c1ccc2c(c1)C(N)C1(CCN(c3cnc(C(=O)N4CCCn5nccc54)c(N)n3)CC1)C2 (stereo not drawn) [Compound 56],21,–
Nc1nc2c(s1)CN(C(=O)c1ncc(N3CCC4(CC3)Cc3ccc(F)cc3C4N)nc1N)CC2(F)F (stereo not drawn) [Compound 116],5,6
COc1ccc2c(c1)CC1(CCN(c3cnc(C(=O)N4CCCn5nccc54)c(N)n3)CC1)C2N (stereo not drawn) [Compound 76],10,191
[2H]C1([2H])CN(C(=O)c2ncc(N3CCC4(CC3)Cc3ccc(C)cc3C4N)nc2N)Cc2sc(N)nc21 (stereo not drawn) [Compound 71],–,16
Nc1nc(N2CCC3(CC2)Cc2ccc(F)cc2C3N)cnc1C(=O)N1CCc2ncccc21 (stereo not drawn) [Compound 16],5,40
CC1(C)CCN(C(=O)c2ncc(N3CCC4(CC3)Cc3ccccc3C4N)nc2N)c2ccnn21 (stereo not drawn) [Compound 87],9,159
Nc1nc(N2CCC3(CC2)Cc2ccccc2C3N)cnc1C(=O)N1CCCc2n[nH]cc21 (stereo not drawn) [Compound 67],7,79
Nc1nc(N2CCC3(CC2)Cc2ccccc2C3N)cnc1C(=O)N1CCOc2ncccc21 (stereo not drawn) [Compound 11],24,–
Nc1nc(N2CCC3(CC2)Cc2ccccc2C3N)c(Cl)nc1C(=O)N1CCCn2nccc21 (stereo not drawn) [Compound 28],4,44
Nc1ccc2c(n1)CCN2C(=O)c1cnc(N2CCC3(CC2)Cc2ccccc2C3N)c(CO)n1 (stereo not drawn) [Compound 68],7,125
N#Cc1cccc2c1CCCN2C(=O)c1ncc(N2CCC3(CC2)Cc2ccccc2C3N)nc1N (stereo not drawn) [Compound 15],13,170
Nc1nc(N2CCC3(CC2)Cc2ccc(C(F)(F)F)cc2C3N)cnc1C(=O)N1CCCn2nccc21 (stereo not drawn) [Compound 22],6,78
Nc1nc(N2CCC3(CC2)Cc2ccccc2C3N)c(Cl)nc1C(=O)N1CCCn2ncc(Cl)c21 (stereo not drawn) [Compound 31],47,–
Nc1nc(N2CCC3(CC2)Cc2ccccc2C3N)c(Br)nc1C(=O)N1CCCn2ncc(Br)c21 (stereo not drawn) [Compound 29],43,–
Nc1ccc2c(n1)CCN2C(=O)c1ncc(N2CCC3(CC2)Cc2ccncc2C3N)nc1N (stereo not drawn) [Compound 97],10,–

SMILES,IC50 (SHP-2 enzyme) [nM],IC50 (MV-4-11 cell) [nM]
N#Cc1ccc2c(c1)C(N)C1(CCN(c3cnc(C(=O)N4CCCn5nccc54)c(N)n3)CC1)C2 (stereo not drawn) [Compound 34],6,56
Nc1nc(N2CCC3(CC2)Cc2ccccc2C3N)cnc1C(=O)N1CCCn2nccc21 (stereo not drawn) [Compound 3],13,54
Cc1ccc2c(c1)C(N)C1(CCN(c3cnc(C(=O)N4Cc5sc(N)nc5C(F)(F)C4)c(N)n3)CC1)C2 (stereo not drawn) [Compound 124],9,–
Nc1nc(N2CCC3(CC2)Cc2ccccc2C3N)cnc1C(=O)N1CCc2ncncc21 (stereo not drawn) [Compound 51],35,–
Nc1nc(N2CCC3(CC2)Cc2ccccc2C3N)cnc1C(=O)N1CCCc2cccnc21 (stereo not drawn) [Compound 12],49,–
[2H]C1([2H])CN(C(=O)c2ncc(N3CCC4(CC3)Cc3ccc(C)cc3C4N)nc2N)Cc2sc(N)nc21 (stereo not drawn) [Compound 123],5,–
CC1CN(C(=O)c2ncc(N3CCC4(CC3)Cc3ccccc3C4N)nc2N)c2cccnc21 (stereo not drawn) [Compound 57],6,–
Cc1ccc2c(c1)C(N)C1(CCN(c3cnc(C(=O)N4Cc5sc(N)nc5C(F)(F)C4)c(N)n3)CC1)C2 (stereo not drawn) [Compound 72],–,12
Nc1ccc2c(n1)CCN2C(=O)c1ncc(N2CCC3(CC2)Cc2cccc(F)c2C3N)nc1N (stereo not drawn) [Compound 90],24,–
Nc1nc(N2CCC3(CC2)Cc2ccccc2C3N)cnc1C(=O)N1CCOc2cccnc21 (stereo not drawn) [Compound 6],83,–
CC1(C)Cc2nc(N)sc2CN1C(=O)c1ncc(N2CCC3(CC2)Cc2ccccc2C3N)nc1N (stereo not drawn) [Compound 69],–,49
Nc1nc(N2CCC3(CC2)Cc2ncccc2C3N)cnc1C(=O)N1CCCn2nccc21 (stereo not drawn) [Compound 39],36,–
NC1c2ccccc2CC12CCN(c1cnc(C(=O)N3CCCn4nccc43)cn1)CC2 (stereo not drawn) [Compound 9],59,–
Nc1ccc2c(n1)CCCN2C(=O)c1ncc(N2CCC3(CC2)Cc2ccccc2C3N)nc1N (stereo not drawn) [Compound 98],26,–
Nc1nc(N2CCC3(CC2)Cc2cc(C(F)(F)F)ccc2C3N)cnc1C(=O)N1CCCn2nccc21 (stereo not drawn) [Compound 55],50,–
Nc1nc2c(s1)CN(C(=O)c1cnc(N3CCC4(CC3)Cc3ccccc3C4N)c(CO)n1)CC2(F)F (stereo not drawn) [Compound 74],–,6
